Patent US9521850B2 (University of Florida Research Foundation, Incorporated, priority 2012, dated 2016)
≈ marks a conversion by molar mass, not a printed value.

Experiments:
SecA of Ca. L. asiaticus = SecA of Ca. L. asiaticus (Candidatus Liberibacter asiaticus, UniProt A0ABM5NFG5); test: biochemical
A. tumefaciens = test: microbe, parasite or virus in culture; type: cell-based; details: Agrobacterium tumefaciens, 24 h
Liberibacter crescens = test: microbe, parasite or virus in culture; type: cell-based
Rhizobium etli = test: microbe, parasite or virus in culture; type: cell-based
Bradyrhizobium japonicum = test: microbe, parasite or virus in culture; type: cell-based
Xanthomonas citri = test: microbe, parasite or virus in culture; type: cell-based, Xanthomonas citri subsp. citri
Mesorhizobium loti = test: microbe, parasite or virus in culture; type: cell-based
Sinorhizobium meliloti = test: microbe, parasite or virus in culture; type: cell-based
[1] = test system: Agrobacterium tumefaciens; test: microbe, parasite or virus in culture; type: cell-based

Compound	MBC (Liberibacter crescens; 24 h)	MIC (Liberibacter crescens; 24 h)	MBC (Liberibacter crescens; 120 h)	MIC (Liberibacter crescens; 120 h)	MBC (Rhizobium etli; 24 hrs)	MIC (Rhizobium etli; 24 hrs)	MBC (Rhizobium etli; 120 hrs)	MIC (Rhizobium etli; 120 hrs)	MBC (Bradyrhizobium japonicum; 24 hrs)	MIC (Bradyrhizobium japonicum; 24 hrs)	MBC (Bradyrhizobium japonicum; 120 hrs)	MIC (Bradyrhizobium japonicum; 120 hrs)	MBC (Xanthomonas citri)	MIC (Xanthomonas citri)	MBC (Mesorhizobium loti)	MIC (Mesorhizobium loti)	MBC (Sinorhizobium meliloti)	MIC (Sinorhizobium meliloti)	MBC [1]	MIC [1]	other results
O=C1CCCC2=C1C(c1cccs1)Nc1ccc(C(=O)c3ccccc3)cc1N2 (stereo not shown) [Compound C20, 7-benzoyl-11-(2-thienyl)-2,3,4,5,10,11-hexahydro-1H-diabenzo[b,e] [1,4]diazepin-1-one]	16 µg/mL (≈ 39.9 µM)	16 µg/mL (≈ 39.9 µM)	32 µg/mL (≈ 79.9 µM)	32 µg/mL (≈ 79.9 µM)	64 µg/mL (≈ 160 µM)	32 µg/mL (≈ 79.9 µM)	64 µg/mL (≈ 160 µM)	32 µg/mL (≈ 79.9 µM)	32 µg/mL (≈ 79.9 µM)	16 µg/mL (≈ 39.9 µM)	64 µg/mL (≈ 160 µM)	16 µg/mL (≈ 39.9 µM)	32 µg/mL (≈ 79.9 µM)	16 µg/mL (≈ 39.9 µM)	16 µg/mL (≈ 39.9 µM)	8 µg/mL (≈ 20 µM)	16 µg/mL (≈ 39.9 µM)	16 µg/mL (≈ 39.9 µM)	128 µg/mL (≈ 320 µM)	32 µg/mL (≈ 79.9 µM)	IC50 (SecA of Ca. L. asiaticus): 440 nM; MBC (A. tumefaciens): 256 µg/mL (≈ 639 µM)
COc1ccc(NC(=O)C2(NC(=O)c3ccc(-n4cnnn4)cc3)CCCCC2)cc1 [Compound C18, N-(1-{[(4-methoxy-phenyl)amino]carbonyl}cyclo-hexyl)-4-(1H-tetrazol-1-yl)benzamide]	8 µg/mL (≈ 19 µM)	8 µg/mL (≈ 19 µM)	16 µg/mL (≈ 38.1 µM)	16 µg/mL (≈ 38.1 µM)	16 µg/mL (≈ 38.1 µM)	16 µg/mL (≈ 38.1 µM)	32 µg/mL (≈ 76.1 µM)	32 µg/mL (≈ 76.1 µM)	8 µg/mL (≈ 19 µM)	8 µg/mL (≈ 19 µM)	16 µg/mL (≈ 38.1 µM)	16 µg/mL (≈ 38.1 µM)	32 µg/mL (≈ 76.1 µM)	16 µg/mL (≈ 38.1 µM)	32 µg/mL (≈ 76.1 µM)	16 µg/mL (≈ 38.1 µM)	64 µg/mL (≈ 152 µM)	32 µg/mL (≈ 76.1 µM)	128 µg/mL (≈ 304 µM)	32 µg/mL (≈ 76.1 µM)	IC50 (SecA of Ca. L. asiaticus): 480 nM; MBC (A. tumefaciens): 256 µg/mL (≈ 609 µM)
COc1ccc2nc(NC(=O)CSc3nc4cc(C)ccc4[nH]3)sc2c1 [Compound C19, N-(6-methoxy-1,3-benzo-thiazol-2-yl)-2-[(5-methyl-1H-benz-imidazol-2-yl)thio]acetamide]	8 µg/mL (≈ 20.8 µM)	8 µg/mL (≈ 20.8 µM)	16 µg/mL (≈ 41.6 µM)	16 µg/mL (≈ 41.6 µM)	32 µg/mL (≈ 83.2 µM)	32 µg/mL (≈ 83.2 µM)	64 µg/mL (≈ 166 µM)	32 µg/mL (≈ 83.2 µM)	32 µg/mL (≈ 83.2 µM)	32 µg/mL (≈ 83.2 µM)	64 µg/mL (≈ 166 µM)	64 µg/mL (≈ 166 µM)	64 µg/mL (≈ 166 µM)	32 µg/mL (≈ 83.2 µM)	32 µg/mL (≈ 83.2 µM)	16 µg/mL (≈ 41.6 µM)	64 µg/mL (≈ 166 µM)	32 µg/mL (≈ 83.2 µM)	128 µg/mL (≈ 333 µM)	32 µg/mL (≈ 83.2 µM)	IC50 (SecA of Ca. L. asiaticus): 640 nM; MBC (A. tumefaciens): 128 µg/mL (≈ 333 µM)
O=C1CC(c2ccccc2)CC2=C1C(c1cccs1)Nc1ccc(C(=O)c3ccccc3)cc1N2 (stereo not shown) [SA8, 7-Benzoyl-3-phenyl-11-(2-thienyl)-2,3,4,5,10,11-hexahydro-1H-dibenzo[b,e] [1,4]diazepin-1-one]	16 µg/mL (≈ 33.6 µM)	16 µg/mL (≈ 33.6 µM)	32 µg/mL (≈ 67.1 µM)	32 µg/mL (≈ 67.1 µM)	16 µg/mL (≈ 33.6 µM)	8 µg/mL (≈ 16.8 µM)	32 µg/mL (≈ 67.1 µM)	16 µg/mL (≈ 33.6 µM)	16 µg/mL (≈ 33.6 µM)	8 µg/mL (≈ 16.8 µM)	32 µg/mL (≈ 67.1 µM)	32 µg/mL (≈ 67.1 µM)	64 µg/mL (≈ 134 µM)	32 µg/mL (≈ 67.1 µM)	32 µg/mL (≈ 67.1 µM)	16 µg/mL (≈ 33.6 µM)	32 µg/mL (≈ 67.1 µM)	16 µg/mL (≈ 33.6 µM)	128 µg/mL (≈ 269 µM)	32 µg/mL (≈ 67.1 µM)	–
COc1ccc(C2Nc3ccc(C(=O)c4ccccc4)cc3NC3=C2C(=O)CC(c2ccccc2)C3)cc1 (stereo not shown) [SA5, 7-Benzoyl-11-(4-methoxy-phenyl)-3-phenyl-2,3,4,5,10,11-hexahydro-1H-dibenzo[b,e] [1,4]diazepin-1-one]	16 µg/mL (≈ 32 µM)	8 µg/mL (≈ 16 µM)	32 µg/mL (≈ 63.9 µM)	16 µg/mL (≈ 32 µM)	16 µg/mL (≈ 32 µM)	16 µg/mL (≈ 32 µM)	32 µg/mL (≈ 63.9 µM)	32 µg/mL (≈ 63.9 µM)	16 µg/mL (≈ 32 µM)	16 µg/mL (≈ 32 µM)	32 µg/mL (≈ 63.9 µM)	32 µg/mL (≈ 63.9 µM)	128 µg/mL (≈ 256 µM)	64 µg/mL (≈ 128 µM)	32 µg/mL (≈ 63.9 µM)	16 µg/mL (≈ 32 µM)	64 µg/mL (≈ 128 µM)	32 µg/mL (≈ 63.9 µM)	64 µg/mL (≈ 128 µM)	32 µg/mL (≈ 63.9 µM)	–
